The results in this text go back to patent publication US10829501B2 (BRISTOL-MYERS SQUIBB COMPANY, priority 2016, dated 2020).

The assay deals with ROCK2 (Homo sapiens, UniProt O75116). Nature of the assay: ROCK2 kinase inhibition assay (LABCHIP 3000 Reader, FITC peptide substrate).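 Note: rho kinase reaction read by separating phosphorylated from unphosphorylated peptide on chip, with inhibition of kinase activity computed per concentration across a dose-response series.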
The mark [1] stands for this setting: read-out: ROCK2 Activity (ROCK2 IC50), 5 μM ATP, 1.5 μM peptide substrate, pH 7.5.

pIC50: −log10 of the molar value. Structures can show the parent of a compound that is named as a salt. Where two headings read alike, the source gives them in different places.

Chain of ROCK2 (O75116 whole entry, species assumed): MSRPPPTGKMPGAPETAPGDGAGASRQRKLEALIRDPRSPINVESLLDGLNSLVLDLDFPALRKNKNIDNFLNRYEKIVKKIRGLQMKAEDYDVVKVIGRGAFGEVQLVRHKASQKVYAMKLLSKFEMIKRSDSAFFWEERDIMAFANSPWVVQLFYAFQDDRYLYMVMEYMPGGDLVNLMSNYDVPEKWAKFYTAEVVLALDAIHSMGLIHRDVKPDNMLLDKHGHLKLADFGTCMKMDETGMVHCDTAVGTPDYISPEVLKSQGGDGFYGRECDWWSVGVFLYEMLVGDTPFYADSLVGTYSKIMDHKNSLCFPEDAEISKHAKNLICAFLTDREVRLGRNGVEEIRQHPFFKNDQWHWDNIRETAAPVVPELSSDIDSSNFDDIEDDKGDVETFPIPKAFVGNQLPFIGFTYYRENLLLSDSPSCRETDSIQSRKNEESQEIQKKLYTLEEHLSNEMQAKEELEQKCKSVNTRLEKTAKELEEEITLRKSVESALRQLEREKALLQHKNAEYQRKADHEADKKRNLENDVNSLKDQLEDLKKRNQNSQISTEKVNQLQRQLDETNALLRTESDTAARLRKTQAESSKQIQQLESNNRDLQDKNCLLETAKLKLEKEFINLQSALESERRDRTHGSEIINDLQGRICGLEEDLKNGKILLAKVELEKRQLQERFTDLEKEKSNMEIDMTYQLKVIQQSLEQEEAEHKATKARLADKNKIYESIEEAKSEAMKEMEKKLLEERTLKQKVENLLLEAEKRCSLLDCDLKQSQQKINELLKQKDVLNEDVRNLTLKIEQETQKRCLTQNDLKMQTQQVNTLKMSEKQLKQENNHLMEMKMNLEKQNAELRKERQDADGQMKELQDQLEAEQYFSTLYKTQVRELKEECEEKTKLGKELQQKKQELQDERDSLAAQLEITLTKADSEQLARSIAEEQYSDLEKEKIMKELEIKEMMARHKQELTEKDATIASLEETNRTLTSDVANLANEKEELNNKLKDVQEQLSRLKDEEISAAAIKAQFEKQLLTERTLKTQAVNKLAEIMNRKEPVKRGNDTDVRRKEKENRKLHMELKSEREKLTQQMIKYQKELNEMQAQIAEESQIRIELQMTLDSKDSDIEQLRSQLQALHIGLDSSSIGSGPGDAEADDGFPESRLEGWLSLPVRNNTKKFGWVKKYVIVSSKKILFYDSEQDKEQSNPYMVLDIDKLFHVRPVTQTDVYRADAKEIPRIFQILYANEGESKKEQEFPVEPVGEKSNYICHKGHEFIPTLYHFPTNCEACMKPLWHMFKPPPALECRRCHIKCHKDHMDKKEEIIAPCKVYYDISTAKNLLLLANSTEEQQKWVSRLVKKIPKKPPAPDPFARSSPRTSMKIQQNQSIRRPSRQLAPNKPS

Regarding `CC(C)(O)Cn1nc(C(=O)N[C@H]2CC3(C2)C[C@H](Oc2ncccc2C(N)=O)C3)c2cc(Br)ccc21` (stereo partly drawn) [Example 93, 5-bromo-N-((aR)-6-((3-carbamoyl-pyridin-2-yl)oxy)spiro[3.3]heptan-2-yl)-1-(2-hydroxy-2-methylpropyl)-1H-indazole-3-carboxamide, trifluoroacetate], the negative logarithm of the IC50 (pIC50) was 7.30 to 8.30.

Consider `Cn1nc(C(=O)N[C@H]2CC3(C2)C[C@H](Oc2ncccc2C(N)=O)C3)cc1OCC(F)F` (stereo partly drawn) [Example 95, 2-((aR)-6-(5-(2,2-difluoroethoxy)-1-methyl-1H-pyrazole-3-carboxamido)spiro-[3.3]heptan-2-yl)oxy) nicotinamide, trifluoroacetate], for which the negative-log IC50 (pIC50) is 6.60 to 7.30.

Turning to `Cc1nc(-c2ccccc2)sc1C(=O)N[C@H]1CC2(C1)C[C@H](Oc1ncccc1C(N)=O)C2` (stereo partly drawn) [Example 96, N-((aR)-6-((3-carbamoylpyridin-2-yl)oxy)spiro[3.3]heptan-2-yl)-4-methyl-2-phenylthiazole-5-carboxamide, trifluoroacetate], the negative logarithm of the IC50 (pIC50) is 6.60 to 7.30.

Regarding `CC(C)(O)Cn1nc(C(=O)NC2CC3(C2)CC(Oc2ncccc2C(N)=O)C3)c2ccc(F)cc21` [Example 97, N-((aR)-6-((3-carbamoylpyridin-2-yl)oxy)spiro[3.3]heptan-2-yl)-6-fluoro-1-(2-hydroxy-2-methylpropyl)-1H-indazole-3-carboxamide, trifluoroacetate], the negative logarithm of the IC50 (pIC50) under setting [1] was 7.30 to 8.30.

For `CC(C)(O)Cn1nc(C(=O)N[C@H]2CC3(C2)C[C@H](Oc2ncccc2C(N)=O)C3)c2ccc(OC(F)(F)F)cc21` (stereo partly drawn) [Example 98, N-((aR)-6-((3-carbamoylpyridin-2-yl)oxy)spiro[3.3]heptan-2-yl)-1-(2-hydroxy-2-methylpropyl)-6-(trifluoromethoxy)-1H-indazole-3-carboxamide, trifluoroacetate], the negative logarithm of the IC50 (pIC50) was 7.30 to 8.30.

For `COc1ccc2c(C(=O)N[C@H]3CC4(C3)C[C@H](Oc3ncccc3C(N)=O)C4)cnn2c1CCC(F)(F)F` (stereo partly drawn) [Example 99, N-((aR)-6-((3-carbamoylpyridin-2-yl)oxy)spiro[3.3]heptan-2-yl)-6-methoxy-7-(3,3,3-trifluoropropyl) pyrazolo[1,5-a]pyridine-3-carboxamide, trifluoroacetate], the negative logarithm of the IC50 (pIC50) is 7.30 to 8.30.

`Cn1cc(-c2c(OCC(C)(C)O)ccc3c(C(=O)N[C@H]4CC5(C4)C[C@H](Oc4ncccc4C(N)=O)C5)cnn23)cn1` (stereo partly drawn) [Example 101, N-((aR)-6-((3-carbamoylpyridin-2-yl)oxy)spiro[3.3]heptan-2-yl)-6-(2-hydroxy-2-methylpropoxy)-7-(1-methyl-1H-pyrazol-4-yl)pyrazolo[1,5-a]pyridine-3-carboxamide, trifluoroacetate] showed a negative logarithm of the IC50 (pIC50) of 7.30 to 8.30.

In the case of `CC(C)(O)Cn1nc(C(=O)N[C@H]2CC3(C2)C[C@H](Oc2ncccc2C(N)=O)C3)c2ccccc21` (stereo partly drawn) [Example 102, N-((aR)-6-((3-carbamoylpyridin-2-yl)oxy)spiro[3.3]heptan-2-yl)-1-(2-hydroxy-2-methylpropyl)-1H-indazole-3-carboamide, trifluoroacetate], the negative-log IC50 (pIC50) is 7.30 to 8.30.

Consider `NC(=O)c1cccnc1O[C@H]1CC2(C[C@H](NC(=O)c3nn(C(F)F)c4cc(F)ccc34)C2)C1` (stereo partly drawn) [Example 103, N-((aR)-6-((3-carbamoylpyridin-2-yl)oxy)piro[3.3]heptan-2-yl-1-(difluoromethyl)-6-fluoro-1H-indazole-3-carboxamide, trifluoroacetate], for which, under setting [1], the pIC50 was more than 8.30.

Molecule `NC(=O)c1cccnc1O[C@H]1CC2(C[C@H](NC(=O)c3cc(C(F)(F)F)cc4[nH]c(=O)[nH]c34)C2)C1` (stereo partly drawn) [Example 104, N-((aR)-6-((3-carbamoylpyridin-2-yl)oxy)spiro[3.3]heptan-2-yl)-2-oxo-6-(trifluoromethyl)-2,3-dihydro-1H-benzo[d]imidazole-4-carboxamide, trifluoroacetate] had a negative-log IC50 (pIC50) of more than 8.30.

With `NC(=O)c1cccnc1OC1CC2(CC(NC(=O)c3nn(CCC(F)(F)F)c4cc(F)ccc34)C2)C1` [Example 105, N-((aR)-6-((3-carbamoylpyridin-2-yl)oxy)spiro[3.3]heptan-2-yl)-6-fluoro-1-(3,3,3-trifluoropropyl)-1H-indazole-3-carboxamide, trifluoroacetate], the pIC50 under setting [1] was more than 8.30.

`Cn1cc(-c2ccc3c(C(=O)N[C@H]4CC5(C4)C[C@H](Oc4ncccc4C(N)=O)C5)nn(C(F)F)c3c2)cn1` (stereo partly drawn) [Example 106, N-((aR)-6-((3-carbamoylpyridin-2-yl)oxy)spiro[3.3]heptan-2-yl)-1-(difluoromethyl)-6-(1-methyl-1H-pyrazol-4-yl)-1H-indazole-3-carboxamide, trifluoroacetate]: the pIC50 was more than 8.30.

`NC(=O)c1cccnc1O[C@H]1CC2(C[C@H](NC(=O)c3cnn4c(C5CC5)c(OCCC(F)(F)F)ccc34)C2)C1` (stereo partly drawn) [Example 107, N-((aR)-6-((3-carbamoylpyridin-2-yl)oxy)spiro[3.3]heptan-2-yl)-7-cyclopropyl-6-(3,3,3-trifluoropropoxy) pyrazolo[1,5-a]pyridine-3-carboxamide, trifluoroacetate]: the negative logarithm of the IC50 (pIC50) is 7.30 to 8.30.

Turning to `CC(C)(O)COc1ccc2c(C(=O)N[C@H]3CC4(C3)C[C@H](Oc3ncccc3C(N)=O)C4)nn(C(F)F)c2c1` (stereo partly drawn) [Example 108, N-((aR)-6-((3-carbamoylpyridin-2-yl)oxy)spiro[3.3]heptan-2-yl)-1-(difluoromethyl)-6-(2-hydroxy-2-methylpropoxy)-1H-indazole-3-carboxamide, trifluoroacetate], the negative logarithm of the IC50 (pIC50) was more than 8.30.

For the molecule `CS(=O)(=O)c1cccc(C(=O)N[C@H]2CC3(C2)C[C@H](Oc2ncccc2C(N)=O)C3)c1` (stereo partly drawn) [Example 109, 2-((aR)-6-(3-(methylsulfonyl)benzamido)spiro[3.3]heptan2-- yl)oxy)nicotinamide, trifluoroacetate], the pIC50 was 6.60 to 7.30.

Turning to `CC(C)(C)c1ccnc(C(=O)N[C@H]2CC3(C2)C[C@H](Oc2ncccc2C(N)=O)C3)c1` (stereo partly drawn) [Example 110, 4-(tert-butyl)-N-((aR)-6-((3-carbamoylpyridin-2-yl)oxy)spiro[3.3]heptan-2-yl)picolinamide, bis-trifluoroacetate], the pIC50 is 7.30 to 8.30.

`[2H]C([2H])([2H])n1cc(-c2ccc3c(C(=O)N[C@H]4CC5(C4)C[C@H](Oc4ncccc4C(N)=O)C5)nn(C(F)F)c3c2)cn1` (some centres unmarked) [Example 111, 1-(difluoromethyl)-6-[1-(^2H3)methyl-1H-pyrazol-4-yl]-N-[(4s)-6-[(3-carbamoylpyridin-2-yl)oxy]spiro[3.3]heptan-2-yl]-1H-indazole-3-carboxamide, trifluoroacetate] gave a pIC50 of more than 8.30.

Turning to `NC(=O)c1cccnc1O[C@H]1CC2(C[C@H](NC(=O)c3nn(C(F)F)c4cc(-c5cnn(C(F)F)c5)ccc34)C2)C1` (stereo partly drawn) [Example 112, N-((aR)-6-((3-carbamoylpyridin-2-yl)oxy)spiro[3.3]heptan-2-yl)-1-(difluoromethyl)-6-(1-(difluoromethyl)-1H-pyrazol-4-yl)-1H-indazole-3-caroxamide, trifluoroacettate], the pIC50 was more than 8.30.

The molecule `CC(C)(C)c1cc(C(=O)N[C@H]2CC3(C2)C[C@H](Oc2ncccc2C(N)=O)C3)n(CC(F)F)n1` (stereo partly drawn) [Example 113, 2-((aR)-6-(3-(tert-butyl)-1-(2,2-difluoroethyl)-1H-pyrazole-5-carboxamido)spiro[3.3]heptan-2-yl)oxy) nicotinamide, trifluoroacetate] showed a pIC50 of 5.60 to 6.60.

`CC(C)(C)c1cc(C(=O)N[C@H]2CC3(C2)C[C@H](Oc2ncccc2C(N)=O)C3)n(CCC(F)(F)F)n1` (stereo partly drawn) [Example 114, 2-((aR)-6-(3-(tert-butyl)-1-(3,3,3-trifluoropropyl)-1H-pyrazole-5-carboxamido)spiro [3.3]heptan-2-yl)oxy) nicotinamide, trifluoroacetate]: the negative logarithm of the IC50 (pIC50) is 5.60 to 6.60.

Molecule `NC(=O)c1cccnc1O[C@H]1CC2(C[C@H](NC(=O)c3cnn4c(CCC(F)(F)F)c(OCCC(F)(F)F)ccc34)C2)C1` (stereo partly drawn) [Example 115, N-((aR)-6-((3-carbamoylpyrdin-2-yl)oxy)spiro[3.3]heptan-2-yl)-6-(3,3,3-trifluoropropoxy)-7-(3,3,3-trifluoropropyl) pyrazolo[1,5-a]pyridine-3-carboxamdie, trifluoroacetate] had a pIC50 of 7.30 to 8.30.

`NC(=O)c1cccnc1OC1CC2(CC(NC(=O)c3nn(CCC(F)(F)F)c4cc(OCCC(F)(F)F)ccc34)C2)C1` [Example 117, N-((aR)-6-((3-carbamoylpyridin-2-yl)oxy)spiro[3.3]heptan-2-yl)-6-(3,3,3-trifluoropropoxy)-1-(3,3,3-trifluoropropyl)-1H-indazole-3-carboxamide, trifluoroacetate]: the negative-log IC50 (pIC50) under setting [1] was 7.30 to 8.30.

For the molecule `NC(=O)c1cccnc1O[C@H]1CC2(C[C@H](NC(=O)c3cnn4cc(CCC(F)(F)F)ccc34)C2)C1` (stereo partly drawn) [Example 118, N-((aR)-6-((3-carbamoylpyridin-2-yl)oxy)spiro[3.3]heptan-2-yl)-6-(3,3,3-trifluoropropyl) pyrazolo[1,5-a[pyridine-3-carboxamide, trifluoroacetate], the negative-log IC50 (pIC50) was 7.30 to 8.30.

For the molecule `CS(=O)(=O)c1cc(Br)cc(C(=O)NC2CC3(C2)CC(Oc2ncccc2C(N)=O)C3)c1` [Example 119, 2-((aR)-6-(3-bromo-5-(methylsulfonyl)benzamido)spiro[3.3]heptan-2-yl)oxy) nicotinamide, trifluoroacetate], the pIC50 under setting [1] was 7.30 to 8.30.

Take `NC(=O)c1cccnc1O[C@H]1CC2(C[C@H](NC(=O)c3cnn4cc(OCCn5ccnc5)ccc34)C2)C1` (stereo partly drawn) [Example 120, 6-(2-(1H-imidazol-1-yl)ethoxy)-N-((aR)-6-((3-carbamoylpyridin-2-yl)oxy)spiro[3.3]heptan-2-yl)pyrazolo[1,5-a]pyridine-3-carboxamdie, trifluoroacetate]: the pIC50 is 7.30 to 8.30.

Take `COCCOCCOc1ccc2c(C(=O)N[C@H]3CC4(C3)C[C@H](Oc3ncccc3C(N)=O)C4)cnn2c1` (stereo partly drawn) [Example 121, N-((aR)-6-((3-carbamoylpyridin-2-yl)oxy)spiro[3.3]heptan-2-yl)-6-(2-(2-methoxyethoxy)ethoxy)pyrazolo [1,5-a]pyridine-3-carboxamide, trifluoroacetate]: the negative logarithm of the IC50 (pIC50) was 7.30 to 8.30.

Broadly, the pIC50 is the IC50 on a negative log10 scale, so that one unit is a factor of ten.
